{"source": "patent US20080085247A1", "about": "“Composition of Menthyl Lactate and a Mixture of Menthol Isomers” (SYMRISE GMBH & CO. KG, priority 2004, published 2008)", "system": "facial skin", "experiment": "Sensory test of cooling sensation, alcohol-free face lotion, 19 trained panelists", "type": "in vivo, human", "conditions": "0.3% in alcohol-free face lotion", "protocol": "A sensory test was carried out with a group of 19 trained panelists in order to evaluate the performance of the coolant composition according to the present invention of Example 2 consisting of 15% l-menthyl l-lactate, 57.6% racemic neomenthol, 21.8% racemic menthol, 4.8% racemic neoisomenthol and 0.8% racemic isomenthol) for topical applications.\nThe cooling sensation of the coolant composition of Example 2 was tested in direct comparison to l-menthyl l-lactate. The mixture according to Example 2 and l-menthyl l-lactate were separately incorporated into samples of an alcohol-free face lotion at a level of 0.3%, based on the total weight of the face lotion.\nThe presented data are average values. The overall cooling sensation was rated on a scale of 1 to 5 (1=very weak; 5=very strong)."}
{"compound": "CC(C)[C@@H]1CC[C@@H](C)C[C@H]1OC(=O)[C@H](C)O", "note": "[I-menthyl I-lactate, l-menthyl l-lactate]", "values": [{"measurement": "How long does the cooling sensation last ?", "setting": "average", "result": "about 9 minutes"}, {"measurement": "When does the cooling sensation become noticeable?", "setting": "average", "result": "after 1 minute"}, {"measurement": "Overall cooling sensation (facial skin)", "setting": "average, scale of 1 to 5 (1=very weak; 5=very strong)", "result": 2.4}, {"measurement": "Was the cooling sensation pleasant ? yes", "setting": "share of panelists answering yes", "result": "yes: 73.7%"}]}
